# Publication PMC4756352, “Atypical natural killer T-cell receptor recognition of CD1d–lipid antigens” (Nature Communications, 2016)
# Experiments:
# human CD1d [1] = target: T1, human CD1d (Homo sapiens, UniProt P15813); experiment: SPR, lipid-loaded CD1d immobilised, TCR injected; conditions: lipid loaded at 3-6 fold molar excess overnight; binding seen through TCR recognition; HBS-T pH 7.4, 25 °C
# T1 construct: soluble CD1d with C-terminal BirA biotin ligase tag and B2M, baculovirus/High Five insect cells, IMAC and gel filtration; biotinylated; with Beta-2-microglobulin
# T1 sequence (P15813 20-295 limits assumed): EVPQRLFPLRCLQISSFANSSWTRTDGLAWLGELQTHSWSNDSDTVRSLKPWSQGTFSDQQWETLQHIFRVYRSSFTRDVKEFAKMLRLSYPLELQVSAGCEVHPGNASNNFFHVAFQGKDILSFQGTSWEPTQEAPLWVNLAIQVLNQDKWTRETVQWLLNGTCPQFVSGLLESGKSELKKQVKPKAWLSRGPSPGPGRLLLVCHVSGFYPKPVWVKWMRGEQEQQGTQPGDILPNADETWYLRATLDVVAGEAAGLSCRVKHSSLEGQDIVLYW
# T1 sequence (P61769 21-119 partner): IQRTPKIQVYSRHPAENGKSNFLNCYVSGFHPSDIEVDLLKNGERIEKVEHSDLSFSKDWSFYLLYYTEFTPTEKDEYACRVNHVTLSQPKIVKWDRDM
# human CD1d [2] = target: T1, human CD1d; experiment: lipid-loaded CD1d tetramer staining of TCR-transduced Jurkat cells; type: cell-based; conditions: binding seen through TCR recognition (9B1, 9B2 lines)
SMILES,"SPR, lipid-loaded CD1d immobilised, TCR injected (human CD1d [1])",lipid-loaded CD1d tetramer staining of TCR-transduced Jurkat cells (human CD1d [2])
CCCCCCCCCCCCCCCCCCCCCCCCCC(=O)N[C@@H](CO[C@H]1O[C@H](CO)C[C@H](O)[C@H]1O)[C@H](O)CCCCCCCCCCCCCCC,no negative impact of this analogue on NKT15 or 9B2 TCR binding,–
CCCCCCCCCCCCCCCCCCCCCCCCCC(=O)N[C@@H](CO[C@H]1O[C@H](CO)[C@H](O)C[C@H]1O)[C@H](O)CCCCCCCCCCCCCCC [3′-deoxy-α-GalCer],affinity of the 9C1 and 9B2 TCRs towards CD1d-3′-deoxy-α-GalCer,–
CCCCCCCCCCCCCCCCCCCCCCCCCC(=O)N[C@@H](CO[C@H]1O[C@H](CO)[C@@H](O)[C@H](O)[C@H]1O)[C@H](O)[C@H](O)CCCCCCCCCCCCCC [α-GlcCer (C26:0)],yet was well-tolerated by NKT15 TCR,–
CCCCCCCCCCCCC/C=C/[C@@H](O)[C@H](CO[C@@H]1O[C@H](CO)[C@H](O)[C@H](O)[C@H]1O)NC(=O)CCCCCCCCCCC [β-GalCer (C12)],–,These 9B1 and 9B2 TCRs also reacted to a lesser extent with β-GalCer
CCCCCCCC/C=C\CCCCCCCCCCCCCC(=O)N[C@@H](CO[C@@H]1O[C@H](CO)[C@@H](O)[C@H](O)[C@H]1O)[C@H](O)/C=C/CCCCCCCCCCCCC [β-GlcCer (C24:1)],–,we detected clear reactivity of Jurkat.9B1 and Jurkat.9B2 cell lines to β-GlcCer
